The values that follow come from PMC3857224, “Inhibition of DNA Glycosylases via Small Molecule Purine Analogs” (PLoS ONE, 2013).

Series [1] concerns the target T1, NEIL1 (Homo sapiens, UniProt Q96FI4).
T1 construct: made in house
As to the kind of experiment: qHTS fluorogenic glycosylase/AP lyase assay, 1536-well, Sp/Gh substrate. The note with it: 5 concentrations. The format is biochemical. On the procedure: The fluorogenic assay was miniaturized to 4 µL in 1536-well black solid plates by optimization of the enzyme and Sp/Gh substrate concentrations. Briefly, 3 µL of 25 nM NEIL1 were dispensed into each well of a 1536-well plate (except buffer in columns 3 and 4 as a negative control). Compounds (DMSO solutions) and control (DMSO only) (23 nL) were transferred to the plate via Kalypsys pintool. The plate was incubated for 15 min at room temperature, and then 1 µL of the Sp/Gh-containing DNA substrate (75 nM final concentration) was added to start the reaction. The plate was immediately transferred into the ViewLux reader for the kinetic fluorescence read. Initial rate data were normalized against uninhibited and no-enzyme controls and the resulting percent activities as a function of compound concentration were fitted using the Hill equation.
Having established the general principle for a glycosylase screening assay, further assay development was undertaken to enable HTS in which the reaction volumes were reduced by 5-fold to a total of 4 µL. Initially, the library of pharmacologically active compounds (LOPAC^1280) was screened for inhibitors of NEIL1 as a determination of the feasibility of this high-throughput method. […] All compounds were screened at 5 different concentrations that allowed for the initial estimation of inhibitory potency (IC50) values, as well as an evaluation of the shape of the response curves. In addition to the anticipated inhibitors (known DNA intercalators, such as ellipticine (IC50 = 2 µM)) and other small molecules that have been previously established to be promiscuous inhibitors (such as aurintricarboxylic acid (IC50<1 µM)), one interesting hit from this screen was CGP-74514A (NCGC ID is NCGC00015229) (Figure 5A). CGP-74514A is a known small molecule inhibitor of Cdk1 in which the structure of this molecule is based on a purine ring backbone.

In series [2] the test system is wild-type MEFs. Briefly: cell survival assay (CellTiter Glo), wild-type MEFs. As to conditions: WT MEFs, 72 h exposure. The format is cell-based, mouse. As to the method:
(§1) Wild-type or Neil1-KO MEFs were plated in a 96-well opaque walled dish (2000 cells/well) and incubated for 18 h to allow for attachment. Inhibitor (80 µL) diluted in DMEM was added to the cells at various concentrations ranging from 0–20 µM, and incubated for an additional 72 h. Cell viability was measured using the CellTiter Glo reagent (Promega, Madison, WI) and was prepared as per the manufacturer's instructions, with 50 µL of the reconstituted reagent added to each well. Cells were incubated for 10 min on an orbital shaker to induce cell lysis. Survival was measured by luminescence on a microplate reader (TECAN) and normalized to no-treatment control.
(§2) To experimentally address this question, mouse embryo fibroblasts from wild-type and Neil1 knockout mice were treated with increasing concentrations of P2, P6, P7, and P8. Cell survival was measured after a 72 h exposure. For all four compounds, the 37% survival was greater in the Neil1 knockout cells relative to the wild-type. The D37 ratios for WT: Neil1 were as follows: P2: 6∶10 µM; P6: 5∶8 µM; P7: 12∶15 µM; and P8: 7∶11 µM, respectively. […] In addition to modulating BER, there are potentially many other candidate enzymes that may be compromised by the introduction of these compounds, including but not limited to kinases, DNA and RNA polymerases, other DNA repair complexes or helicases. However, given that the concentrations of these compounds are several orders of magnitude higher than what would be considered as a pharmacologically-relevant dose, detailed mechanistic analyses of the current set of compounds is highly premature. Such studies and the development of appropriate cell culture and animal models will need to be generated concomitantly with the evolution of higher affinity, greater specificity molecules.

Series [3] relates to Neil1-KO MEFs. Briefly: cell survival assay (CellTiter Glo), Neil1-KO MEFs. As to conditions: Neil1 knockout MEFs, 72 h exposure. It counts as cell-based, mouse. On the procedure:
as §1, §2

Series [4] concerns NEIL1, NTH1, OGG1 and FPG. Briefly: glycosylase/AP lyase cleavage assays with common substrates (Tg, 8-oxo-Gua) across glycosylases. It counts as biochemical, human; Escherichia coli (FPG). As to conditions: all enzymes except for NTH1. On the procedure:
The 384-well fluorogenic assay was carried out in a 20 µL reaction mixture in 20 mM Tris-HCl pH 8.0, 100 mM KCl, and 0.1% BSA, with 5 nM active enzyme and 50 nM substrate. Possible inhibitors were incubated with the enzyme for at least 5 min at room temperature in a black, low-volume 384-well plate before addition of an equal volume of substrate to start the reaction. The plates were spun for 30 s at 1000 rcf to remove bubbles. The reactions were incubated at 37°C and fluorescence data collected on an Infinite M200 (Tecan, Mannedorf, Switzerland) equipped with standard optics (excitation filter 525 nm, and emission filter 598 nm). For the gel-based assay, reactions were initiated as described for the fluorogenic assay, but quenched with 20 µL 95% formamide at 20 min. The products were separated by electrophoresis through a 15% polyacrylamide gel containing 8 M urea and visualized by a Typhoon scanner (GE Life Sciences, Piscataway, NJ). The fraction of cleaved product was measured using ImageQuant software and analyzed using GraphPad Prism 6.
In humans, several glycosylases, including OGG1, NTH1, NEIL2, and NEIL3 may participate in the removal of a wide variety of oxidized bases. […] To address this question, assays were designed to measure inhibition of OGG1 and NTH1, as well as the Escherichia coli glycosylase-AP lyase, FPG. […]

T1 sequence (Q96FI4 whole entry): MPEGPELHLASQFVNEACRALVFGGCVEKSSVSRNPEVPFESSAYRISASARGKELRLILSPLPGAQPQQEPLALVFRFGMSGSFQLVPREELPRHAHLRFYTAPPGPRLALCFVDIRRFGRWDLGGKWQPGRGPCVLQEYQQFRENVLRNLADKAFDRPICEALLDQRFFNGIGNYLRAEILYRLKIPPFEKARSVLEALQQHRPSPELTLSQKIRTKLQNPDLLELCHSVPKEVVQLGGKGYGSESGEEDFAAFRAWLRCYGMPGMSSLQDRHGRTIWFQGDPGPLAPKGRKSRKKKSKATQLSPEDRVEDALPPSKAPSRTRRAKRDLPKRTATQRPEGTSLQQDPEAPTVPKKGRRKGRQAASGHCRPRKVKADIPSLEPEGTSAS

`Cc1cc(/C=C/C#N)cc(C)c1Nc1nc(Nc2ccc3scnc3c2)c2nc[nH]c2n1` [Purine P2] came in with a half-maximal inhibitory concentration (IC50) in series [1] of 4 µM. In addition, the “D37 (37% survival)” value in series [2] is given as 6 µM; in series [3], 10 µM.
With `Cc1nc2ccc(Nc3nc(Nc4c(C)cc(/C=C/C#N)cc4C)nc4[nH]cnc34)cc2s1` [Purine P6], the 50% inhibitory concentration (IC50) in series [1] stood at 7.9 µM. In addition, the “D37 (37% survival)” value is on record as 5 µM in series [2] and 8 µM in series [3].
In series [1], `Cc1cc(/C=C/C#N)cc(C)c1Nc1nc(Nc2ccc3c(c2)CCC3)c2nc[nH]c2n1` [Purine P7] returned an IC50 of 8.9 µM. Further, the “D37 (37% survival)” value in series [2] is 12 µM; in series [3], 15 µM.
As for `Cc1cc(/C=C/C#N)cc(C)c1Nc1nc(Nc2ccc3c(c2)OCO3)c2nc[nH]c2n1` [Purine P8], the IC50 in series [1] is 10 µM. Also, the “relative inhibition among the compounds” value in series [4] is reported as “poorest inhibition”. Besides, the “D37 (37% survival)” value is on record as 7 µM in series [2] and 11 µM in series [3].
